Four compounds from publication PMC6271338, “Synthesis and Cytotoxic Evaluation of Alkoxylated Chalcones” (Molecules, 2014) can be followed below.

One series relates to HepG2 cells. Nature of the series: In vitro anti-proliferative SRB assay, HepG2. It counts as cell-based, human. Particulars: for IC50: Homo sapiens, HepG2, increasing concentrations up to 30 μM, mean ± SD of at least three independent experiments; for SI (CC50 HMLE/IC50 HepG2) / SI (CC50 L02/IC50 HepG2): selectivity index; for SI (CC50 HMLE/IC50 HepG2): HMLE vs HepG2; for SI (CC50 L02/IC50 HepG2): L02 vs HepG2. The procedure: (§1) HepG2 and MCF7 cells were grown in the Eagle’s minimum essential medium with Earle’s balanced salts (MEM-EBSS) medium, HeLa, A549 and L02 cells were grown in Dulbecco’s Modified Eagle Media (DMEM), SW1990 cells were grown in RPMI-1640 medium, and HMLE cell were grown in DMEM/F-12 medium. […]
(§2) Cells were seeded into 96-well plates (4000 cells/well) and incubated at 37 °C in a humidified 5% CO2 atmosphere. After 24 h, the cells were treated with different concentrations of the compounds for 48 h in triplicate to generate dose-response curves. Cell viability was evaluated using the sulforhodamine B (SRB) assay as previous described.
(In general: Sulforhodamine B stains cellular protein and so reports cell mass.)

The subject of the next series is HeLa cells. Briefly: In vitro anti-proliferative SRB assay, HeLa. The settings on record: for IC50: Homo sapiens, HeLa, increasing concentrations up to 30 μM, mean ± SD of at least three independent experiments; for SI (CC50 HMLE/IC50 Hela) / SI (CC50 L02/IC50 Hela): selectivity index; for SI (CC50 HMLE/IC50 Hela): HMLE vs HeLa; for SI (CC50 L02/IC50 Hela): L02 vs HeLa. It counts as cell-based, human. The protocol: as §1, §2

The test system of a further series is MCF-7 cells. Nature of the series: In vitro anti-proliferative SRB assay, MCF-7. It counts as cell-based, human. The settings on record: for IC50: Homo sapiens, MCF7, increasing concentrations up to 30 μM, mean ± SD of at least three independent experiments; for SI (CC50 HMLE/IC50 MCF7) / SI (CC50 L02/IC50 MCF7): selectivity index; for SI (CC50 HMLE/IC50 MCF7): HMLE vs MCF7; for SI (CC50 L02/IC50 MCF7): L02 vs MCF7. The protocol: as §1, §2

Another series has as its system A549 cells. Nature of the series: In vitro anti-proliferative SRB assay, A549. The settings on record: for IC50: Homo sapiens, A549, increasing concentrations up to 30 μM, mean ± SD of at least three independent experiments; for SI (CC50 HMLE/IC50 A549) / SI (CC50 L02/IC50 A549): selectivity index; for SI (CC50 HMLE/IC50 A549): HMLE vs A549; for SI (CC50 L02/IC50 A549): L02 vs A549. It counts as cell-based, human. The procedure:
as §1, §2

In another series the test system is SW1990 cells. Briefly: In vitro anti-proliferative SRB assay, SW1990. It counts as cell-based, human. Particulars: for IC50: Homo sapiens, SW1990, increasing concentrations up to 30 μM, mean ± SD of at least three independent experiments; for SI (CC50 HMLE/IC50 SW1990) / SI (CC50 L02/IC50 SW1990): selectivity index; for SI (CC50 HMLE/IC50 SW1990): HMLE vs SW1990; for SI (CC50 L02/IC50 SW1990): L02 vs SW1990. The protocol: as §1, §2

Series [1] in a line: Cytotoxicity (SRB) against non-tumoral HMLE cells. It counts as cell-based, human. The settings on record: human, HMLE cells (non-tumoral human mammary epithelial cells); increasing concentrations up to 100 μM; mean ± SD of at least three independent experiments; read-out: Normal Human Cell Lines, CC50, HMLE. The procedure:
(§3) All compounds were also evaluated for their cytotoxic activity against two non-tumoral human cell lines named human mammary epithelial cell (HMLE) and L02 (a human liver cell line) in Table 2 and SI values between the CC50 in non-tumoral cell lines and IC50 in tumoral cells calculated.
as §1
(§4) Cells were seeded into 96-well plates (4000 cells/well) and incubated at 37 °C in a humidified 5% CO2 atmosphere. After 24 h, the cells were treated with different concentrations of the compounds for 48 h in triplicate to generate dose-response curves. Cell viability was evaluated using the sulforhodamine B (SRB) assay as previous described. […] Etoposide was used as the positive control.

A short description of series [2]: Cytotoxicity (SRB) against non-tumoral L02 cells. It counts as cell-based, human. Particulars: human, L02 cells (non-tumoral human liver cell line); increasing concentrations up to 100 μM; mean ± SD of at least three independent experiments; read-out: Normal Human Cell Lines, CC50, L02. The procedure: as §3, §1, §4

A value given as a limit tells only on which side of the number the result lay.

Take `COc1cccc(OC)c1/C=C/C(=O)c1cccc(OCc2ccccc2)c1` [b12, (E)-1-(3-(Benzyloxy)phenyl)-3-(2,6-dimethoxyphenyl)prop-2-en-1-one]: the melting point (commonly the temperature, or range, at which the solid turns liquid) is 108.8 to 110.2 °C. In addition, in the series on HepG2 cells, 23.6 ± 0.84 µM corresponded to half-maximal inhibition (IC50), the “SI (CC50 HMLE/IC50 HepG2)” value was 1.3 and the “SI (CC50 L02/IC50 HepG2)” value is greater than 4.2. Also, in the series with HeLa cells, half-maximal inhibition (IC50) required 25.6 ± 1.16 µM, the “SI (CC50 HMLE/IC50 Hela)” value is recorded as 1.2 and the “SI (CC50 L02/IC50 Hela)” value was greater than 3.9. Further, in the series with MCF-7 cells, the half-maximal inhibitory concentration (IC50) (in general, the midpoint of a concentration-inhibition curve) worked out at 29.03 ± 0.09 µM; the “SI (CC50 HMLE/IC50 MCF7)” value came out at 1.1; the “SI (CC50 L02/IC50 MCF7)” value is listed as greater than 3.4. Besides, in the series with A549 cells, 13.25 ± 0.02 µM corresponded to half-maximal inhibition (IC50) and the “SI (CC50 HMLE/IC50 A549)” value stood at 2.4. In the series on SW1990 cells, the half-maximal inhibitory concentration (IC50) stood at 22.3 ± 0.07 µM and the “SI (CC50 HMLE/IC50 SW1990)” value is given as 1.4. For the same compound, the CC50 (commonly the concentration giving 50% cytotoxicity) at 48 h in series [1] stood at 31.4 ± 1.12 µM. Further, the CC50 at 48 h in series [2] is greater than 100 µM.

`COc1cccc(OC)c1/C=C/C(=O)c1ccc(O)cc1` [b26, (E)-1-(4-Hydroxyphenyl)-3-(2,6-dimethoxyphenyl)prop-2-en-1-one] displayed a melting point of 189.6 to 191.4 °C. In the series on HepG2 cells, the half-inhibitory concentration (IC50) stood at 14.4 ± 0.81 µM, the “SI (CC50 HMLE/IC50 HepG2)” value came to 0.9 and the “SI (CC50 L02/IC50 HepG2)” value came to 2.0. Also, in the series with HeLa cells, the IC50 was found to be 12.7 ± 0.81 µM, the “SI (CC50 HMLE/IC50 Hela)” value is on record as 1.0 and the “SI (CC50 L02/IC50 Hela)” value was found to be 2.2. Further, in the series on MCF-7 cells, the IC50 was 20.2 ± 0.3 µM, the “SI (CC50 HMLE/IC50 MCF7)” value was determined as 0.6 and the “SI (CC50 L02/IC50 MCF7)” value is reported as 1.4. Also, in the series on A549 cells, inhibition was half-maximal at 23.8 ± 1.56 µM (IC50), the “SI (CC50 HMLE/IC50 A549)” value stood at 0.5 and the “SI (CC50 L02/IC50 A549)” value worked out at 1.2. Besides, in the series on SW1990 cells, the IC50 was found to be 20.8 ± 0.54 µM, the “SI (CC50 HMLE/IC50 SW1990)” value is given as 0.6 and the “SI (CC50 L02/IC50 SW1990)” value turned out to be 1.4. Also, in series [1], the cytotoxic concentration (CC50) at 48 h came to 12.6 ± 2.82 µM. Moreover, the half-maximal cytotoxic concentration (CC50) at 48 h in series [2] is 28.2 ± 1.69 µM.

Take `COc1cccc(OC)c1/C=C/C(=O)c1cccc(O)c1` [b25, (E)-1-(3-Hydroxyphenyl)-3-(2,6-dimethoxyphenyl)prop-2-en-1-one]: the melting point fell in the range of 138.1 to 139.7 °C. Besides, in the series with HepG2 cells, half-maximal inhibition (IC50) required 7.27 ± 0.13 µM, the “SI (CC50 HMLE/IC50 HepG2)” value is 0.9 and the “SI (CC50 L02/IC50 HepG2)” value is reported as 2.7. In the series with HeLa cells, the IC50 turned out to be 9.56 ± 0.33 µM, the “SI (CC50 HMLE/IC50 Hela)” value stood at 0.7 and the “SI (CC50 L02/IC50 Hela)” value is on record as 2.1. In the series on MCF-7 cells, the concentration for half-maximal inhibition (IC50) was 8.92 ± 0.25 µM, the “SI (CC50 HMLE/IC50 MCF7)” value was found to be 0.7 and the “SI (CC50 L02/IC50 MCF7)” value was 2.2. In the series with A549 cells, the IC50 amounted to 12.7 ± 0.28 µM, the “SI (CC50 HMLE/IC50 A549)” value was found to be 0.5 and the “SI (CC50 L02/IC50 A549)” value worked out at 1.5. Moreover, in the series on SW1990 cells, the IC50 worked out at 21 ± 0.43 µM, the “SI (CC50 HMLE/IC50 SW1990)” value came to 0.3 and the “SI (CC50 L02/IC50 SW1990)” value came out at 0.9. In series [1], the CC50 at 48 h came to 6.31 ± 0.13 µM. Besides, the CC50 at 48 h in series [2] was found to be 19.6 ± 1.29 µM.

`COc1cccc(OC)c1/C=C/C(=O)c1cccc(C)c1` [b3, (E)-1-(3-Methylphenyl)-3-(2,6-dimethoxyphenyl)prop-2-en-1-one] yielded a melting point of 102.5 to 103.8 °C. Further, in the series with HepG2 cells, half-maximal inhibition (IC50) required 12.8 ± 0.5 µM, the “SI (CC50 HMLE/IC50 HepG2)” value came to 1.3 and the “SI (CC50 L02/IC50 HepG2)” value came out at 2.6. For the same compound, in the series on HeLa cells, the half-maximal inhibitory concentration (IC50) turned out to be 13.3 ± 2.14 µM, the “SI (CC50 HMLE/IC50 Hela)” value was determined as 1.2 and the “SI (CC50 L02/IC50 Hela)” value is reported as 2.5. Also, in the series on MCF-7 cells, the 50% inhibitory concentration (IC50) came to 26.8 ± 4.26 µM, the “SI (CC50 HMLE/IC50 MCF7)” value was 0.6 and the “SI (CC50 L02/IC50 MCF7)” value is 1.2. Besides, in the series on A549 cells, the half-maximal inhibitory concentration (IC50) was determined as 20.7 ± 0.59 µM, the “SI (CC50 HMLE/IC50 A549)” value worked out at 0.8 and the “SI (CC50 L02/IC50 A549)” value is given as 1.6. In addition, in the series on SW1990 cells, the IC50 amounted to 25.2 ± 2 µM, the “SI (CC50 HMLE/IC50 SW1990)” value worked out at 0.6 and the “SI (CC50 L02/IC50 SW1990)” value came out at 1.3. For the same compound, in series [1], the CC50 at 48 h turned out to be 16.2 ± 0.19 µM. In series [2], the CC50 at 48 h is 33.3 ± 1.61 µM.
